Experimental data published in ChEMBL document CHEMBL1201862, “PubChem BioAssay data set” (2004).
Calls of active or inactive are those of the source.

What was measured:
HeLa = assay: ATP-based viability loss in HeLa cells – cell-based, CellTiter-Glo luminescence, cherry-pick samples, cytotoxicity control for MITF activator project, dose response (AID 540259); format: functional; settings: Homo sapiens
[1] = viability of PTEN-deleted HCT116 cells – cell-based, HCT116 PTEN knockout, dose response (AID 1047); format: functional;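 further: HCT116 colon tumor cells with PTEN knocked out; cells exposed to compound for 60 hours before readout; potency for loss of cell viability measured by luminescence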
Perilipin-1/ABHD5 = biological target: T1, Perilipin-1/ABHD5 (Homo sapiens, UniProt O60240+Q8WTS1); assay: Luminescence-based biochemical high throughput dose response assay for inhibitors of the interaction of the lipase co-activator protein, abhydrolase domain containing 5 (ABHD5) with perilipin-1 (PLIN1) (2K validation set). [Related pubchem assays (depositor defined):AID493027, AID493057]
T1 sequence (Q8WTS1 whole entry): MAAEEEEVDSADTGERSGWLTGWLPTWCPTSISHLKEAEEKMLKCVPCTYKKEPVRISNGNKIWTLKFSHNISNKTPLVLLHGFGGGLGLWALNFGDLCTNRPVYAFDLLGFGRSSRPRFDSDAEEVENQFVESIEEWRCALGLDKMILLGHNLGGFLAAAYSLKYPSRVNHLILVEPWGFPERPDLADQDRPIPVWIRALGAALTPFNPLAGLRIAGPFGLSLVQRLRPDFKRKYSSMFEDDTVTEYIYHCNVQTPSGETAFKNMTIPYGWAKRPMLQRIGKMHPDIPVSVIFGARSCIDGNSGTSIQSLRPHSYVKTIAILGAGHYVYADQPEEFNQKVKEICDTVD
T1 sequence (O60240 whole entry): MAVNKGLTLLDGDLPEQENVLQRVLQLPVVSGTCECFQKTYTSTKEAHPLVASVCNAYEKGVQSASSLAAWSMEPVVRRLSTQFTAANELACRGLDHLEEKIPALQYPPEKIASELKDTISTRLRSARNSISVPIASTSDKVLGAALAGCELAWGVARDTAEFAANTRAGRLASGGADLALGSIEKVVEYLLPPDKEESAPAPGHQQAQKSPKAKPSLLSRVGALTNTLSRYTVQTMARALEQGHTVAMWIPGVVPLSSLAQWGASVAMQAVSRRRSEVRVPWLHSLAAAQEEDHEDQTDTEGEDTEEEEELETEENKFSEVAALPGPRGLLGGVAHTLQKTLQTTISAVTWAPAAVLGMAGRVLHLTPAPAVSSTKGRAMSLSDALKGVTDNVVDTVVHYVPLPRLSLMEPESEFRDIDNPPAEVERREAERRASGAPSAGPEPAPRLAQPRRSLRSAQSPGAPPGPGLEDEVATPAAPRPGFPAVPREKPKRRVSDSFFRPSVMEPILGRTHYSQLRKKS

Vero [2] = assay: cells; format: functional, cell-based; settings: Chlorocebus sabaeus
[3] = biological target: T2, 1-acylglycerol-3-phosphate O-acyltransferase ABHD5/Perilipin-5 (Homo sapiens, UniProt Q00G26+Q8WTS1); assay: Luminescence-based biochemical high throughput dose response assay for inhibitors of the interaction of the lipase co-activator protein, abhydrolase domain containing 5 (ABHD5) with perilipin-5 (MLDP; PLIN5) (2K validation set). [Related pubchem assays (depositor defined):AID493035, AID493241]
T2 sequence (Q00G26 whole entry): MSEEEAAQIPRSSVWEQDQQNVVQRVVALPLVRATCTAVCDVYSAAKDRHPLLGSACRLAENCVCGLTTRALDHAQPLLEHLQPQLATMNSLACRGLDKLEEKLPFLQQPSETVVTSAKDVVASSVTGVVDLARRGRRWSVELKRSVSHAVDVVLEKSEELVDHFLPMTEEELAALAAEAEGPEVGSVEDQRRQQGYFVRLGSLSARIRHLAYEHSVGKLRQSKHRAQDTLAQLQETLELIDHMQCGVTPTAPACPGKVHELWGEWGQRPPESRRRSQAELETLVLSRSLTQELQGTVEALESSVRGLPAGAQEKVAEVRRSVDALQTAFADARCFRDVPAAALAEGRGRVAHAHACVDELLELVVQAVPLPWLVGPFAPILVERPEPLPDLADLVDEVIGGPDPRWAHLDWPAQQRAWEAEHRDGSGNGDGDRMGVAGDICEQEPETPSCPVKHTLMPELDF
T2 sequence (Q8WTS1 whole entry): T1 sequence (Q8WTS1 whole entry)

Protein skinhead-1 = biological target: T3, Protein skinhead-1 (Caenorhabditis elegans, UniProt P34707); format: functional
T3 sequence (P34707 whole entry): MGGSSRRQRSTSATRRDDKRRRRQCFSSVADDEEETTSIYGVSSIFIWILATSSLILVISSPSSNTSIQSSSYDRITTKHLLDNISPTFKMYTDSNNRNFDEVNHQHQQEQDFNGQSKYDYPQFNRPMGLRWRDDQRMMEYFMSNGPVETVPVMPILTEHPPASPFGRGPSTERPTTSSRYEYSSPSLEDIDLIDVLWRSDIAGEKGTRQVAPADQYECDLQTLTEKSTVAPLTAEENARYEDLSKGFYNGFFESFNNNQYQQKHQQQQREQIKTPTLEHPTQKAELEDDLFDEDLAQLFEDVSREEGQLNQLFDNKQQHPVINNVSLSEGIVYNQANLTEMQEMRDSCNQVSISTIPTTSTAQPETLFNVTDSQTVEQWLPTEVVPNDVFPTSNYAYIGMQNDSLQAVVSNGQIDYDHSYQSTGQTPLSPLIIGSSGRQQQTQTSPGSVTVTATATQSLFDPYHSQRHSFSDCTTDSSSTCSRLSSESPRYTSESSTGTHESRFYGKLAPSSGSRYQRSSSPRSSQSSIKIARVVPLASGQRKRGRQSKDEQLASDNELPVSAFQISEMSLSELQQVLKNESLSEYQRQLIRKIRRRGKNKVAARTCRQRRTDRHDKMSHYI

[4] = viability of HCT116 lacking mutant beta-catenin – cell-based, human colon tumor, dose response (AID 1045); format: functional;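 further: HCT116 colon tumor cells with beta catenin knocked out; cells exposed to compound for 60 hours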
Vero [5] = assay: cells; format: functional; settings: Chlorocebus sabaeus
[6] = Luminescence Cell-Based Dose Retest to Confirm Inhibitors of Cancer Stem Cells. [Related pubchem assays (depositor defined):AID2717, AID2721]; format: functional; settings: Homo sapiens
HEK293 = assay: HEK293T cell viability loss, resazurin readout – resazurin fluorescence, cytotoxicity control for NF-kB activator project, SAR follow-up (AID 493251); format: functional, cell-based; settings: Homo sapiens

Q: With `Cn1cccc1C(=O)C(=O)Nc1ccc(F)c(F)c1` as the molecule, how does the AC50 (HeLa) read?
A: 72.6 µM (active)

Q: For `O=C(/C=C/c1ccccc1)/C=C/c1ccccc1`, which EC50 [1] is on record?
A: 1.22 µM (active)

Q: And the IC50 (Perilipin-1/ABHD5)?
A: 1.52 µM (active)

Q: What about the IC50 (Vero [2]) of the same molecule?
A: > 25 µM (active)

Q: And the IC50 [3]?
A: 1.48 µM (active)

Q: What about the IC50 (Protein skinhead-1) of the same molecule?
A: 11.6 µM (active)

Q: What about the EC50 [4] of the same molecule?
A: 0.953 µM (active)

Q: What about the CC50 (Vero [5]) of the same molecule?
A: 19.1 µM (active)

Q: And the AC50 [6]?
A: 1.42 µM (active)

Q: Which IC50 (HEK293) does the source give for `COC(=O)CCc1nc(-c2ccc(C(C)(C)C)cc2)no1` here?
A: > 80 µM (inactive)

Q: For `O=C(NCCC1=CCCCC1)c1ccc(-n2cncn2)cc1`, which AC50 (HeLa) is on record?
A: > 350 µM (inactive)
